“And” between values parts separate entries of the source, which are not always exact repeats. Equal entries are not always repeated.
Tests used:
M. incognita J2 larvae = assay: Meloidogyne incognita in vitro assays (J2 movement); format: in vivo; conditions: 45 μM, 2 days, relative to DMSO control
Experimental: (§1) M. incognita (Kofoid & White) Chitwood Race 1 (originally isolated in Maryland) was used for all experiments, and was maintained on pepper (Capsicum annuum L.) cv. PA-136 in a greenhouse as previously described^64. Infective J2 juveniles were collected as described in ref.65. The microwell dose-response experiments were carried out similarly to previously described protocols^64, 66. In brief, 100 J2s, in 10 μL of deionized water, were added to the wells of 96-well polystyrene plates, after which 190 μL of deionized water containing dissolved chemical, or DMSO alone, was added to each well. The chemicals were tested at 45 μM, and the final concentration of DMSO in each well was 0.5% (v/v). The wells were covered with a plastic adhesive strip, and the lids of the plates were sealed with parafilm. The plates were incubated at 25° C. The mobile fraction of worms was quantified by counting the number of mobile and immobile worms after 2 days of incubation, and then dividing the number of mobile worms by the total number of worms in the well. Three technical replicates were performed for each treatment, and an average value for the mobile fraction of worms was calculated across the three replicates. The percent effectiveness at inhibiting nematode movement was calculated by dividing the average value for the chemical treatment by the average value for the DMSO control, then subtracting this value from 1, and then multiplying by 100.

M. chitwoodi J2 larvae = assay: Meloidogyne chitwoodi in vitro assays (J2 movement); format: in vivo; conditions: 45 μM, 2 days, relative to DMSO control
Experimental: as §1
(§2) M. chitwoodi race 1 (the strain commonly found in the pacific northwest of the United States) was used for all experiments, and was maintained on tomato plants (Solanum lycopersicum ‘Rutgers’) as previously described^73. The M. chitwoodi in vitro assays were performed identically to the M. incognita in vitro assays (see above).

C. elegans [1] = assay: C. elegans viability at a single concentration (Table 3); format: in vivo; conditions: Caenorhabditis elegans; 100 μM
Experimental: (§3) Forty microliters of an HB101 bacterial suspension in liquid NGM (see above) was added to each well of a 96-well flat-bottom culture plate, after which approximately 25 synchronized L1 worms, in 10 μl of M9 buffer (see ref. 59 for the recipe), were added to each well. The synchronized L1 worms were obtained from an embryo preparation performed the previous day (see ref. 59 for the protocol). For the L1 assays, 0.5 μl of chemical solution (or DMSO alone) was immediately added to the wells using a multichannel pipette, the final DMSO concentration is 1% (v/v). The worms were incubated for 3 days at 20° C. and the number of viable animals was counted. […] Although the counts were performed after 3 days of incubation in the chemical, it was noted that the L1s were dead within 24 hours of the addition of the chemicals. For the L2/L3 assays, the worms were incubated in the absence of chemical for 1 day at 20° C. until they reached the L2/L3 stage, at which point chemical was added as described above. The worms were then allowed to incubate for 2 days at 20° C. and the number of viable animals was counted as described for the L1 assay. For the L4 assays, the worms were incubated for 2 days at 20° C. before the addition of chemicals. The L4-stage worms were then incubated in chemical for an additional day before quantifying the number of viable animals. The adult assays were performed the same way as the L4 assays, however HT115 E. coli carrying the empty dsRNA expressing vector L4440 was used in place of HB101 and the worms were cultured at 25° C. as opposed to 20° C. for the entirety of the experiment. The HT115 suspension was made by concentrating a bacterial culture, with an OD600 of ˜ 0.8, five-fold with liquid NGM containing 1 mM IPTG and 100 μg/ml carbenicillin. The HT115 cells were induced with 1 mM IPTG for one hour before concentrating with NGM.
(§4) The ability of exemplary compounds of the application to kill C. elegans at 100 μM (except for compound If which was tested at 50 μM) and to affect the mobility of M. chitwoodi at 45 μM was tested as described above for M. incognita infective juveniles. Percent mobility was measured after 2 days of chronic exposure to test compounds (Table 3).

C. elegans [2] = assay: C. elegans minimum lethal concentration dose-response; format: in vivo, Caenorhabditis elegans; conditions: for minimal effective concentration: Caenorhabditis elegans, C. elegans viability
Experimental: as §3
Compounds Ia to Im, dose-response assays were performed with C. elegans. 8 of the compounds killed C. elegans with minimum lethal concentrations less than or equal to 100 μM (Table 6). Compounds Ia, Ic, and Ij were the most potently lethal nematicides in this assay, having minimum lethal concentrations of 6.25 μM and below. The positive control nematicide tioxazafen killed nematodes at 3.13 μM and above.

tomato plants = assay: Root mass of tomato plants in the infectivity assays; format: in vivo, Solanum lycopersicum; conditions: 45 μM
Experimental: (§5) An M. incognita population originally collected from grape (Vitis vinifera) in Parlier, Calif., was used for all experiments, and they were maintained on tomato plants (Solanum lycopersicum ‘Rutgers’) as previously described^73. Infective J2 juveniles were collected as described in^73. For the infectivity assays, 90 grams of soil (1:1 sand:loam mix) was added to each cell of several 6-cell plastic garden packs. The soil was drenched with 18 mL of deionized water containing dissolved chemical or DMSO alone. 2,500 infective J2 juveniles were then added to the soil in 2 mL of deionized water, for a total water volume of 20 mL. The final concentration of the chemicals in water was 45 μM. The DMSO concentration varied from 0.1% to 0.8% (v/v) depending on the stock concentration of the chemical. The highest DMSO concentration was used as the DMSO control. The J2s were incubated in the soil and chemical for 24 hours, after which two- to three-week old tomato seedlings were transplanted into the soil (one plant per cell). Two replicates were performed for each chemical treatment, and four replicates were done for the DMSO controls. The whole experiment was replicated twice, in two different batches on two different days, for a total of four replicates for each chemical treatment, and eight replicates for the DMSO controls. Inoculated plants were grown for 8 weeks in a greenhouse, as described^73, under long-day conditions (16-h photoperiod) with 26/18° C. day/night temperatures. After 8 weeks, the plants were destructively harvested. The tops were removed and discarded, and roots were gently washed with water to remove adhering soil. Eggs were extracted by placing rinsed roots in 0.6% sodium hypochlorite and agitating at 300 rpm for 3 min. Roots were then rinsed over nested 250- and 25.4-μm sieves, with eggs collected from the latter and suspended in water. Roots were dried in a 65° C. oven for at least 24 hours, after which dry roots were weighed. The number of eggs from each plant root was counted on a dissection microscope using a haemocytometer, and the number of eggs per milligram of root was calculated by dividing the total egg number by the mass of the dried root material. An average was taken across the replicates performed on the same day, and then normalized to the DMSO control average. To calculate percent effectiveness at inhibiting reproduction, the normalized values were subtracted from 1, and then multiplied by 100. An average percent effectiveness value was then calculated across the two different batches carried out on different days.

HepG2 cells = assay: HepG2 cell proliferation assay; format: cell-based, human; conditions: for IC50: Alamar Blue
Experimental: HepG2 cells, which are liver-derived, were counted using a haemocytometer, diluted, and seeded in […] to a final density of 5×10^4 cells/mL in 100 uL of RPMI-1640 medium supplemented with 10% heat inactivated fetal bovine serum (Gibco) and 1.2×Antibiotic-Antimycotic (Gibco). Cells were incubated at 37° C. with 5% CO2 for 24 hours. Subsequently, a 2-fold dilution series of test compound was added to cells at a final volume of 200 uL and incubated at 37° C. with 5% CO2 for 72 hours. After 72 hours, Alamar Blue (Invitrogen) was added to the Hep G2 cells at a final concentration of 0.5× and plates were incubated at 37° C. for 4 hours. Fluorescence was measured at Ex560 nm/Em590 nm and corrected for background from the medium. All assays were performed in technical triplicates and in at least two biological replicates. The IC50 value was defined as the concentration that inhibits cell proliferation by 50% of the untreated control cells.

M. incognita = assay: Meloidogyne incognita infectivity assays (tomato roots in soil); format: in vivo; conditions: 45 μM in soil, 8 weeks, eggs per mg root relative to DMSO control
Experimental: as §5

M. chitwoodi = assay: Root-knot nematode M. chitwoodi mobility (Table 3); format: in vivo, Meloidogyne chitwoodi; conditions: 45 μM, 2 days of chronic exposure
Experimental: as §1, §2, §4

[3] = test system: M. incognita infective juveniles; assay: Meloidogyne incognita dose-response experiments (infective J2 juveniles, FIG. 2); format: in vivo; conditions: 5, 15, 45 micromolar; third day after water rinse
Experimental: M. incognita (Kofoid & White) Chitwood Race 1 (originally isolated in Maryland) was used for all experiments, and were maintained on pepper (Capsicum annuum L.) cv. PA-136 in a greenhouse as previously described^64. Infective J2 juveniles were collected as described in ref. 65. The microwell dose-response experiments were carried out similarly to previously described protocols^64, 66. In brief, 100 J2 s, in 10 μL of deionized water, were added to the wells of 96-well polystyrene plates, after which 190 μL of deionized water containing dissolved chemical, or DMSO alone, was added to each well. The final concentration of DMSO in each well was 0.5% (v/v), except for the water only control which contained no DMSO and no added chemicals. The final concentrations of the chemicals for each dose-response experiment were 5, 15, and 45 μM. The wells were covered with a plastic adhesive strip, and the lids of the plates were sealed with parafilm. The plates were incubated at 25° C. The fraction of active worms was quantified by counting the number of mobile and immobile worms after 1 and 2 days of incubation, and then dividing the number of mobile worms by the total number of worms in the well. After 2 days of incubation, the chemicals were removed and replaced with deionized water (i.e. the water rinse) and the fraction of active worms was quantified 1 day later. A failure of the worms to recover after rinsing with water is consistent with them having been killed by the chemical treatment. Four technical replicates were performed for each treatment.

Arabidopsis thaliana = Arabidopsis thaliana greening experiments; format: in vivo; conditions: 5, 15 and 45 micromolar, greening after 4 days
Experimental: Greening experiments were performed with Arabidopsis thaliana seeds of wild type Col-0; seeds were surface sterilized in bleach and plated onto 0.5×MS, 0.5% sucrose agar medium supplemented with compounds of interest at 5, 15 and 45 μM concentrations. After 4 d of stratification at 4° C., plates were transferred to a growth chamber (16 h/8 h, 150 μE/m^2) and greening recorded after 4 days. Pictures were recorded by camera (SONY a7s) with FE1.8/55 lens (FE 55 mm F1.8 ZA; SEL55F18Z). Experiments were performed in triplicate for each treatment.

Compound | % effectiveness at reducing M. incognita movement (M. incognita J2 larvae) [%] | % effectiveness at reducing M. chitwoodi movement (M. chitwoodi J2 larvae) [%] | viability at 100 µM (C. elegans [1]) [%] | minimal effective concentration (C. elegans [2]) | Normalized root mass (relative to DMSO control) (tomato plants) | HepG2 IC50 (HepG2 cells; 72 hours, approximate ppm equivalent) [ppm] | IC50 (HepG2 cells; Homo sapiens, HepG2, 72 hours) [µM] | % effectiveness at inhibiting reproduction of M. incognita (M. incognita) [%] | RKN mobility (M. chitwoodi) [%] | nematicidal activity on M. incognita infective juveniles [3] | effect on health and greening of Arabidopsis thaliana plants (phytotoxicity) (Arabidopsis thaliana) | times more potent at killing C. elegans than compound Ig (C. elegans [2]; ratio of minimum lethal concentrations) | IC50 (HepG2 cells; 72 hours) [µM]
Cc1cn2cc(-c3ccc(Cl)cc3)nc2s1 [Compound Ig] | 0.0 | 5.7 | 100 | > 24.9 µg/mL | 1.4 | > 25 | > 100 | 44.2 | 82.4 | – | – | – | –
Cc1csc2nc(-c3ccc(F)cc3)cn12 [Compound Ik, 6-(4-fluorophenyl)-3-methylimidazo[2,1-b]thiazole] | – | – | – | 50 µM and 11.6 µg/mL | 1.0 | – | – | 0.6 | – | – | – | – | –
Cc1csc2nc(-c3ccc(Br)cc3)cn12 [Compound Il, 6-(4-bromophenyl)-3-methylimidazo[2,1-b]thiazole] | – | – | – | 25 µM and 7.3 µg/mL | 1.4 | – | – | 8.1 | – | – | – | – | –
Cc1cn2cc(-c3ccc(Br)cc3)nc2s1 [Compound Im, 6-(4-bromophenyl)-2-methylimidazo[2,1-b]thiazole] | – | – | – | > 100 µM and > 29.3 µg/mL | 1.1 | – | – | 1.2 | – | – | – | – | –
Cc1cn2cc(-c3ccc(I)cc3)nc2s1 [Ih] | 0.0 | 5.6 | 95.4 | > 100 µM and > 34 µg/mL | 1.3 | – | – | 25.7 | 82.5 | – | – | – | –
Cc1cn2cc(-c3ccc(F)cc3)nc2s1 [Ii] | 0.0 | – | 100 | > 100 µM and > 23.2 µg/mL | – | – | – | – | 28.9 | – | – | – | –
O=C(NCCc1ncc(C(F)(F)F)cc1Cl)c1ccccc1C(F)(F)F [fluopyram, reference compound] | – | – | – | – | – | – | – | – | – | most potent compound tested | phytotoxic at 15 and 45 micromolar | – | –
c1ccc(-c2noc(-c3cccs3)n2)cc1 [tioxazafen, reference compound] | 55.5 | 40.0 | – | – | 1.1 | – | – | 43.7 | – | – | phytotoxic at 15 and 45 micromolar | more than 32 times | > 100
